Data: patent publication EP4603105A1, “PHARMACEUTICAL COMPOSITION CONTAINING CYCLIC COMPOUND HAVING SELECTIVE KRAS INHIBITORY EFFECT AGAINST HRAS AND NRAS” (CHUGAI SEIYAKU KABUSHIKI KAISHA, priority 2022, dated 2024)
Where two headings read alike, the source gives them in different places.

Legend:
HRAS wild-type protein = HRAS wild-type protein (Homo sapiens, UniProt P01112); test: Binding to HRAS by surface plasmon resonance (SPR), KD and KD ratio to KRAS
Summary of the method: (§1)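 Biotinylated GDP-bound RAS was captured at about 100–300 RU. Running buffer: HBS pH 7.4, 10 mM MgCl2, 10 µM GDP, 1 mM DTT, 0.01% Tween 20, 4% DMSO.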

[1] = molecular target: GDP-bound KRAS wild-type protein (Homo sapiens, UniProt P01116); test: Binding to KRAS by surface plasmon resonance (SPR), dissociation constant KD
Summary of the method: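 Running buffer contained 10 µM GDP and 10 mM MgCl2 to keep RAS in the GDP state, with 4% DMSO at pH 7.4. Compounds were flowed at 100 µL/min in 75 s steps of rising concentration over captured biotin-Avi RAS at 30°C. Sensorgrams were fitted 1:1 for KD.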

[2] = molecular target: GDP-bound NRAS wild-type protein (Homo sapiens, UniProt P01111); test: Binding to NRAS by surface plasmon resonance (SPR), KD and KD ratio to KRAS
Summary of the method: as §1

[3] = system: human lung cancer strain NCI-H441; test: NCI-H441 cell proliferation inhibitory activity (CellTiter-Glo, 4 days); type: cell-based; details: read-out: NCl-H441 IC50
Summary of the method: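 Step one: dispense the test compound in serial DMSO dilutions. Step three: add the reagent and measure […].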

[4] = ratio of KD with respect to HRAS wild-type protein to KD with respect to KRAS
[5] = Single Cycle Kinetics, 1:1 binding model
[6] = ratio of KD with respect to GDP-bound NRAS wild-type protein to KD with respect to KRAS
[7] = 50% proliferation inhibitory concentration, four days
[8] = ratio of KD for HRAS wild-type protein to KD for KRAS
[9] = ratio of KD for GDP-bound NRAS wild-type protein to KD for KRAS

Chain of GDP-bound NRAS wild-type protein (P01111 whole entry): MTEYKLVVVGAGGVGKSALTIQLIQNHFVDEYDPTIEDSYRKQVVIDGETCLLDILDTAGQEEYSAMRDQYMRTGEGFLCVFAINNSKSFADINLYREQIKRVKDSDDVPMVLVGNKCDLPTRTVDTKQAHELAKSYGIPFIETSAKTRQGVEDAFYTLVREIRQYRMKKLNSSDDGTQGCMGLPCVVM
Chain of HRAS wild-type protein (P01112 whole entry): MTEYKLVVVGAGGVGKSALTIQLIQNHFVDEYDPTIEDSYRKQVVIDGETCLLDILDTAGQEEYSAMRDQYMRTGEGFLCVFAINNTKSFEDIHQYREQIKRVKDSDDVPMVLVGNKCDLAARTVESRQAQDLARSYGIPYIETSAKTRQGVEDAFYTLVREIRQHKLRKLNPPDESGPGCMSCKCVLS
Chain of GDP-bound KRAS wild-type protein (P01116 1-188 isoform P01116-2): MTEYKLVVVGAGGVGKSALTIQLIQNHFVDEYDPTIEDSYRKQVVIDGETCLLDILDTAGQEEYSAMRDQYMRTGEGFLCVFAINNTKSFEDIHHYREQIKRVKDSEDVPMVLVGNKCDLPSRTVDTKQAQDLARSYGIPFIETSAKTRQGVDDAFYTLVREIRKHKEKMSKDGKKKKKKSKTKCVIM

Row | Kd [1, 5] [nM] | IC50 [3, 7] [nM] | Kd ([1]; 1:1 binding model) [nM] | IC50 ([3]; NCI-H441 cells, 4 days) [nM] | Kd ([1]; Single Cycle Kinetics) [nM] | SMILES | HRAS /KRAS (HRAS wild-type protein; [4]) | NRAS /KRAS [2, 6] | HRAS /KRAS (HRAS wild-type protein; [8]) | NRAS /KRAS [2, 9]
1 | 0.17 | 24.4 | – | – | – | CCC[C@H]1C(=O)N[C@@H]([C@@H](C)CC)C(=O)N(C)CC(=O)N(C)[C@H]2C/C=C\CCN(C2=O)[C@@H](Cc2ccc(C(F)(F)F)cc2)C(=O)N(C)CC(=O)N[C@@H](CCc2ccc(C(F)(F)F)c(OC)c2)C(=O)N2C[C@H](OCC)C[C@H]2C(=O)NC2(CCC2)C(=O)N(C)[C@@H](C(CC)CC)C(=O)N(C)[C@H](C(=O)N(C)C)CC(=O)N1C [PP1208] | A (a compound having 10 or more and less than 20 is denoted as A) | AA (a compound having 20 or more is denoted as AA) | – | –
2 | – | – | 0.061 | 7.8 | – | CCCOC[C@H]1C(=O)N[C@@H]([C@@H](C)CC)C(=O)N(C)CC(=O)N(C)[C@H]2C/C=C\CCN(C2=O)[C@@H](Cc2ccc(C)cc2)C(=O)N(C)CC(=O)N[C@@H](CCc2ccc(C(F)(F)F)c(OC)c2)C(=O)N2C[C@H](OCC)C[C@H]2C(=O)NC2(CC(C)(C)C2)C(=O)N(C)[C@@H](C2CCCC2)C(=O)N(C)[C@H](C(=O)N(C)C)CC(=O)N1C [PP2449] | – | – | A (a compound having 10 or more and less than 20 is denoted as A) | A (a compound having 10 or more and less than 20 is denoted as A)
3 | – | – | 0.092 | 10.6 | – | CCCOC[C@H]1C(=O)N[C@@H]([C@@H](C)CC)C(=O)N(C)CC(=O)N(C)[C@H]2C/C=C\CCN(C2=O)[C@@H](Cc2ccc(C)cc2)C(=O)N(C)CC(=O)N[C@@H](CCc2ccc(C(F)(F)F)c(Cl)c2)C(=O)N2C[C@H](OCC)C[C@H]2C(=O)NC2(CC(C)(C)C2)C(=O)N(C)[C@@H](C2CCCC2)C(=O)N(C)[C@H](C(=O)N(C)C)CC(=O)N1C [PP2402] | – | – | A (a compound having 10 or more and less than 20 is denoted as A) | A (a compound having 10 or more and less than 20 is denoted as A)
4 | – | – | – | 109 | 0.68 | CCO[C@@H]1C[C@H]2C(=O)NC3(CC(C)(C)C3)C(=O)N(C)[C@@H](C3CCCC3)C(=O)N(C)[C@H](C(=O)N(C)C)CC(=O)N(C)[C@@H]([C@@H](C)OC)C(=O)N[C@@H]([C@@H](C)CC)C(=O)N3CCC[C@H]3C(=O)N(C)[C@H]3C/C=C\CCN(C3=O)[C@@H](Cc3ccc(C)cc3)C(=O)N(C)CC(=O)N[C@@H](CCc3ccc(C(F)(F)F)c(Cl)c3)C(=O)N2C1 [PP3215] | – | – | A (a compound having 10 or more and less than 20 is denoted as A) | A (a compound having 10 or more and less than 20 is denoted as A)
5 | – | – | – | 5.2 | 0.2 | CCO[C@@H]1C[C@H]2C(=O)OC3(CCC3)C(=O)N(C)[C@@H](C3CCCC3)C(=O)N(C)[C@H](C(=O)N(C)C)CC(=O)N(C)[C@@H](CC(C)C)C(=O)N[C@@H]([C@@H](C)CC)C(=O)N(C)CC(=O)N(C)[C@H]3C/C=C\CCN(C3=O)[C@@H](Cc3ccc(C)cc3)C(=O)N(C)CC(=O)N[C@@H](CCc3ccc(C(F)(F)F)c(OC)c3)C(=O)N2C1 [PP3382] | – | – | B (a compound having 3 or more and less than 10 is denoted as B) | A (a compound having 10 or more and less than 20 is denoted as A)
6 | – | – | 3.4 | 124 | – | CCC[C@H]1C(=O)N[C@@H](CC(C)C)C(=O)N(C2CC2)CC(=O)N(C)[C@H]2C/C=C\CCN(C2=O)[C@@H](Cc2ccc(C)cc2)C(=O)N(C)CC(=O)N[C@@H](CCc2cc(F)c(C(F)(F)F)c(F)c2)C(=O)N2C[C@H](OCC)C[C@H]2C(=O)NC2(CC(C)(C)C2)C(=O)N(C)[C@@H](C2CCCC2)C(=O)N(C)[C@H](C(=O)N(C)C)CC(=O)N1C [PP2508] | – | – | B (a compound having 3 or more and less than 10 is denoted as B) | A (a compound having 10 or more and less than 20 is denoted as A)
7 | – | – | 1.5 | 82.7 | – | CCC(CC)[C@H]1C(=O)N(C)[C@H](C(=O)N(C)C)CC(=O)N(C)[C@@H](COC)C(=O)N[C@@H]([C@@H](C)CC)C(=O)N2CCC[C@H]2C(=O)N(C)[C@H]2C/C=C\CCN(C2=O)[C@@H](Cc2ccc(C(F)F)cc2)C(=O)N(C)CC(=O)N[C@@H](CCc2ccc(Cl)c(Cl)c2)C(=O)N2C[C@H](OC3CCCC3)C[C@H]2C(=O)NC2(CC(C)(C)C2)C(=O)N1C [PP2652] | – | – | A (a compound having 10 or more and less than 20 is denoted as A) | AA (a compound having 20 or more is denoted as AA)
8 | 0.44 | 76.8 | – | – | – | CCO[C@@H]1C[C@H]2C(=O)NC3(CCC3)C(=O)N(C)[C@@H](C3CCCC3)C(=O)N(C)[C@H](C(=O)N(C)C)CC(=O)N(C)[C@@H](CC3CCCC3)C(=O)N[C@@H]([C@@H](C)CC)C(=O)N(C)CC(=O)N(C)[C@H]3C/C=C\CCN(C3=O)[C@@H](Cc3ccc(C(F)(F)F)cc3)C(=O)N(C)CC(=O)N[C@@H](CCc3ccc4sccc4c3)C(=O)N2C1 [PP1261] | A (a compound having 10 or more and less than 20 is denoted as A) | A (a compound having 10 or more and less than 20 is denoted as A) | – | –
9 | – | – | – | 26.2 | 0.3 | CCC[C@@H]1NC(=O)C[C@@H](C(=O)N(C)C)N(C)C(=O)[C@H](C2CCCC2)N(C)C(=O)C2(CC(C)(C)C2)NC(=O)[C@@H]2C[C@@H](OCC)CN2C(=O)[C@H](CCc2ccc(C(F)(F)F)c(Cl)c2)NC(=O)CN(C)C(=O)[C@H](Cc2ccc(C(F)(F)F)cc2)N2CC/C=C\C[C@@H](C2=O)N(C)C(=O)CN(C)C(=O)[C@H]([C@@H](C)CC)NC1=O [PP3454] | – | – | A (a compound having 10 or more and less than 20 is denoted as A) | A (a compound having 10 or more and less than 20 is denoted as A)
10 | 0.046 | 10.8 | – | – | – | CCO[C@@H]1C[C@H]2C(=O)NC3(CCC3)C(=O)N(C)[C@@H](C3CCCC3)C(=O)N(C)[C@H](C(=O)N(C)C)CC(=O)N(C)[C@@H](COCC(F)(F)F)C(=O)N[C@@H]([C@@H](C)CC)C(=O)N(C)CC(=O)N(C)[C@H]3C/C=C\CCN(C3=O)[C@@H](Cc3ccc(C(F)(F)F)cc3)C(=O)N(C)CC(=O)N[C@@H](CCc3cc(F)c(C(F)(F)F)c(F)c3)C(=O)N2C1 [PP1267] | A (a compound having 10 or more and less than 20 is denoted as A) | A (a compound having 10 or more and less than 20 is denoted as A) | – | –
11 | – | – | – | 81.2 | 1.8 | CCCO[C@@H]1C[C@H]2C(=O)NC3(CC(C)(C)C3)C(=O)N(C)[C@@H](C3CCCC3)C(=O)N(C)[C@H](C(=O)N(C)CC)CC(=O)N[C@@H](COCC)C(=O)N[C@@H]([C@@H](C)CC)C(=O)N3CCC[C@H]3C(=O)N(C)[C@H]3C/C=C\CCN(C3=O)[C@@H](Cc3ccc(C)cc3)C(=O)N(C)CC(=O)N[C@@H](CCc3cc(F)c(C(F)(F)F)c(F)c3)C(=O)N2C1 [PP3423] | – | – | A (a compound having 10 or more and less than 20 is denoted as A) | A (a compound having 10 or more and less than 20 is denoted as A)
12 | 0.047 | 3.3 | – | – | – | CCO[C@@H]1C[C@H]2C(=O)NC3(CCCC3)C(=O)N(C)[C@@H](C3CCCC3)C(=O)N(C)[C@H](C(=O)N(C)C)CC(=O)N(C)[C@@H](CC3CC3)C(=O)N[C@@H]([C@@H](C)CC)C(=O)N(C)CC(=O)N(C)[C@H]3C[C@@H](C)[C@@H](C)CN(C3=O)[C@@H](Cc3ccc(C(F)(F)F)cc3)C(=O)N(C)CC(=O)N[C@@H](CCc3cc(F)c(C(F)(F)F)c(F)c3)C(=O)N2C1 [PP1356] | B (a compound having 3 or more and less than 10 is denoted as B) | B (a compound having 3 or more and less than 10 is denoted as B) | – | –
13 | 0.15 | 34.8 | – | – | – | CCO[C@@H]1C[C@H]2C(=O)NC3(CCC3)C(=O)N(C)[C@@H](C3CCCC3)C(=O)N(C)[C@H](C(=O)N3CCCC3)CC(=O)N(C)[C@@H](CC)C(=O)N[C@@H]([C@@H](C)CC)C(=O)N(C)CC(=O)N(C)[C@H]3C/C=C\CCN(C3=O)[C@@H](CC3CCCCC3)C(=O)N(C)CC(=O)N[C@@H](CCc3cc(F)c(C(F)(F)F)c(F)c3)C(=O)N2C1 [PP1443] | A (a compound having 10 or more and less than 20 is denoted as A) | AA (a compound having 20 or more is denoted as AA) | – | –
14 | – | – | – | 137 | 3.4 | CCCO[C@@H]1C[C@H]2C(=O)NC3(CC(C)(C)C3)C(=O)N(C)[C@@H](C3CCCC3)C(=O)N(C)[C@H](C(=O)N(C)CC)CC(=O)N(C)[C@@H](COCC)C(=O)N[C@@H]([C@@H](C)CC)C(=O)N3C[C@@H](C)C[C@H]3C(=O)N(C)[C@H]3C/C=C\CCN(C3=O)[C@@H](Cc3ccc(C)cc3)C(=O)N(C)CC(=O)N[C@@H](CCc3ccc(C(F)(F)F)c(OC)c3)C(=O)N2C1 [PP3468] | – | – | A (a compound having 10 or more and less than 20 is denoted as A) | B (a compound having 3 or more and less than 10 is denoted as B)
15 | – | – | 7.6 | 222 | – | CCO[C@@H]1C[C@H]2C(=O)NC3(CC(C)(C)C3)C(=O)N(C)[C@@H](C(CC)CC)C(=O)N(C)[C@H](C(=O)N(C)C)CC(=O)N(C)[C@@H](COC)C(=O)N[C@@H]([C@@H](C)CC)C(=O)N(C3CC3)CC(=O)N(C)[C@H]3C/C=C\CCN(C3=O)[C@@H](CC3CCCCC3)C(=O)N(C)CC(=O)N[C@@H](CCc3cc(F)c(C(F)(F)F)c(F)c3)C(=O)N2C1 [PP2564] | – | – | A (a compound having 10 or more and less than 20 is denoted as A) | A (a compound having 10 or more and less than 20 is denoted as A)
